According to patent US10335370B2, “Controlled release composition” (priority 2008, dated 2019):

Columns and labels:
Format in all cases: in vivo
[1] = system: H22 tumor cell; test: Tumor growth inhibition, H22 tumor in mice; conditions: 12 mg/kg i.p., four injections; 15th day after inoculation
Protocol: Cisplatin implant prepared according to Example 5 was used in this study. Ascites fluid was taken from d7 H22 passage mice under sterile conditions, and the ascites fluid was diluted with normal saline to prepare tumor cell suspension at a concentration of 1.0×10^7 cells/ml. Each mouse received a subcutaneous injection of 0.2 ml tumor cell suspension at the right armpit (number of inoculated cells: 2×10^6). The mice were randomized into 6 groups the next day after inoculation, cisplatin implant or excipient control was implanted near the tumor at the seventh day after inoculation. The positive control group received an intraperitoneal injection of cisplatin the next day after inoculation, and four injections in total at an interval of twice a week. The negative control group received an intraperitoneal injection of normal saline the next day after inoculation, and four injections in total at an interval of twice a week. The mice were sacrificed at the 15th day after inoculation, and the tumor mass were peeled and weighted. Tumor growth inhibition rate was calculated using the following equation: […]

[2] = system: SGC-7901 tumor; test: Tumor growth inhibition, SGC-7901 tumor in nude mice; conditions: 1.6 mg ip, four injections; 21st day after inoculation
Protocol: Fluorouracil implant prepared according to Example 2 were used in this study. SGC-7901 tumor tissues at vigorous growth stage were obtained and cut into pieces of about 1.5 mm^3. The tumor tissue pieces were inoculated subcutaneously to the right armpit of nude mice, under sterile conditions. The mice were randomized into 6 groups at the sixth day after inoculation. Three groups were treated with different doses of fluorouracil implant prepared according to Example 2. Another group was treated with excipient at the sixth day after noculation. The fluorouracil implant or excipient was implanted subcutaneously near the tumor. The positive group received four intraperitoneal injections of fluorouracil in total at an interval of twice a week. The negative control group received four intraperitoneal injections of normal saline in total at an interval of twice a week. The mice were sacrificed at the 21st day after inoculation, and the tumor mass were peeled and weighed. The tumor growth inhibition rate was calculated using the following equation: […]

[3] = system: Pancreatic cancer cell line PC3; test: Tumor size, pancreatic cancer PC3 in nude mice; conditions: Group B, i.v. 10 mg/kg
Protocol: Fluorouracil implant composition prepared according to Example 2 was tested for its efficacy on pancreatic cancer. Pancreatic cancer cell line PC3 was cultured and inoculated subcutaneously to 70 nude mice at the right armpit at the dose of 2×10^6 cells per inoculation. Tumor grew to the size of about 4 mm×4 mm×4 mm 4 weeks after the implant. 60 nude mice having tumors of similar sizes were selected and randomized into 5 groups with 12 mice in each group: Group A was administered intravenously through the angular vein with normal saline at the dose of 0.1 ml per mice; Group B was administered intravenously through the angular vein with 0.1 ml fluorouracil solution in normal saline at the dose of 10 mg/kg; Group C was implanted with blank matrix; Group D was implanted with fluorouracil implant composition into the pancreatic tumor mass at the dose of 4 mg/kg; and Group E was implanted with fluorouracil implant composition into the pancreatic tumor mass at the dose of 1 mg/kg. The size of the tumor mass was measured before and after treatment.

Structure (SMILES) | Tumor growth inhibition rate (%) [1] [%] | Tumor weight X ± SD [1] [g] | Tumor growth inhibition rate (%) [2] [%] | Tumor weight X ± SD [2] [g] | tumor size ([3]; 3rd day) [mm^3] | tumor size ([3]; 6th day) [mm^3] | tumor size ([3]; 10th day) [mm^3] | tumor size ([3]; 14th day) [mm^3] | tumor size ([3]; Before treatment) [mm^3]
N.N.[Cl][Pt][Cl] [cisplatin] | 19.68 | 2.98 ± 1.14 | – | – | – | – | – | – | –
O=c1[nH]cc(F)c(=O)[nH]1 [fluorouracil] | – | – | 75.76 | 0.71 ± 0.42 | 72.3 | 96.62 ± 20.5 | 107.3 ± 20.9 | 121.6 ± 14.3 | 61.5 ± 8.7
